Blank lines part the entries; values can stand above or below the compound they belong to. *1 amine or outer side, *2 acyl side, *3 side chain or, on linkers, in order; H or OH if unused. Where a SMILES comes first, the peptide text is derived from it. Side-chain parts run from the residue outwards. [ ]: non-standard residue; d: D form. The star is where a group is joined. C18 diacid = O=C(O)CCCCCCCCCCCCCCCCC(=O)*; γGlu = O=C(O)[C@H](CCC(=O)[*:2])N[*:1]; Dap = NC[C@H](N)C(=O)O; Pentanoyl = CCCCC(=O)*; AEEA = NCCOCCOCC(=O)O; Aib = CC(C)(N)C(=O)O
Legend:
[1] = target: T1, human CRF2a receptor (Homo sapiens, UniProt Q13324); experiment: Activity at human CRF2a receptor, cAMP functional assay in TeloHEAC cells; assay type: cell-based; details: TeloHEAC cells stably expressing human CRF2a receptor, relative to urocortin 2 (100 nM = 100%)
T1 construct: expressed in transfected cells; host or cells: TeloHEAC cells
T1 sequence (Q13324 1-411): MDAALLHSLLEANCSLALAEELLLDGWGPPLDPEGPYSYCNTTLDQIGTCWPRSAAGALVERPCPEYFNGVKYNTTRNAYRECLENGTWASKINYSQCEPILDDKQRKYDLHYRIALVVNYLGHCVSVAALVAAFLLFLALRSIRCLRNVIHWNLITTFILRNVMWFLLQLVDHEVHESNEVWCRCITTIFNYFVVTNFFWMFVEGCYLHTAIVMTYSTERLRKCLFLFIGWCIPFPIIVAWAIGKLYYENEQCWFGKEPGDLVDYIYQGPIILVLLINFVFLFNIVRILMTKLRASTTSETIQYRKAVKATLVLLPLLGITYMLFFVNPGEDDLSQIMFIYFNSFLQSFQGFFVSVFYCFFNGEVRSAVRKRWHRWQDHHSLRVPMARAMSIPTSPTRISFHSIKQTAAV
Summary of the method: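 cAMP accumulation was measured by HTRF 665/620 nm ratio after 30 min at 37° C compound exposure (16 twofold dilutions) of CRF2a-expressing TeloHEAC cells, 10000/well, in HEPES-buffered HBSS plus IBMX. Activity was normalised to urocortin 2 at 100 nM (100%), and EC50 was the concentration giving half-maximal activation.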

[2] = target: T2, CFR1R receptor (Homo sapiens, UniProt P34998); experiment: Activity at anti-target CFR1R receptor, cAMP assay in CRF1R-overexpression CHO-K1 cells; assay type: cell-based; details: 100% = Sauvagine at 100 nM; for EC50: cAMP
T2 construct: host or cells: CHO-K1 (clone 2)
T2 sequence (P34998 24-415): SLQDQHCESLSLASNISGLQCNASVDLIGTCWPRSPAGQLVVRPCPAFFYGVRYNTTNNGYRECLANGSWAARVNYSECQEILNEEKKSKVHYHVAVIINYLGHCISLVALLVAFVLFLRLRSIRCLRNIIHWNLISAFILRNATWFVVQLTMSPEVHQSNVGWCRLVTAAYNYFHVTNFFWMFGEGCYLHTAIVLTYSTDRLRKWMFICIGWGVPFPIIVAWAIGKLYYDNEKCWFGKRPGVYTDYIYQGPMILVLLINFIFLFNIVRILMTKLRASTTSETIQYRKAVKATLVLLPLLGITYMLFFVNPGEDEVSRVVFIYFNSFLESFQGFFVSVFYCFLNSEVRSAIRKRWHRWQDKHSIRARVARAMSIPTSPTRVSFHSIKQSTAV
Summary of the method: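 Grow clone 2 to near confluence at 37° C. under 5% CO2 in F12 (Hams) with 10% FBS and G418, harvest, and freeze in 10% DMSO. Thaw and plate at 4000 cells/well. Then proceed per the TeloHAEC method, normalising to Sauvagine 100 nM as maximum.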

Structure (SMILES): CCCCC(=O)N[C@H](C(=O)N[C@@H](CC(C)C)C(=O)N[C@@H](CO)C(=O)N[C@@H](CC(C)C)C(=O)N[C@@H](CC(=O)O)C(=O)N[C@@H](C(=O)N1CCC[C@H]1C(=O)N[C@H](C(=O)N[C@@H](CCCCN)C(=O)N[C@@H](CC(C)C)C(=O)N[C@@H](CCCCNC(=O)COCCOCCNC(=O)COCCOCCNC(=O)CC[C@H](NC(=O)CCCCCCCCCCCCCCCCC(=O)O)C(=O)O)C(=O)N[C@@H](CCCCN)C(=O)N[C@H](C(=O)N[C@@H](CC(C)C)C(=O)N[C@@H](CC(C)C)C(=O)N[C@@H](CCC(=O)O)C(=O)N[C@@H](CCC(N)=O)C(=O)N[C@@H](CCC(=O)O)C(=O)N[C@@H](CCCCN)C(=O)N[C@@H](CCC(N)=O)C(=O)N[C@@H](CCCCN)C(=O)NC(C)(C)C(=O)N[C@@H](CCC(N)=O)C(=O)N[C@@H](CCCNC(=N)N)C(=O)N[C@@H](CCC(=O)O)C(=O)N[C@@H](CCC(N)=O)C(=O)N[C@@H](C)C(=O)N[C@@H](CCC(=O)O)C(=O)N[C@H](C(=O)N[C@@H](CC(N)=O)C(=O)NC(C)(C)C(=O)N[C@@H](CCC(N)=O)C(=O)N[C@H](C(=O)N[C@@H](CC(C)C)C(=O)N[C@@H](C)C(=O)N[C@@H](CCC(N)=O)C(=O)N[C@H](C(N)=O)C(C)C)[C@@H](C)CC)[C@@H](C)O)[C@@H](C)CC)[C@@H](C)CC)C(C)C)C(C)C [compound 202] (Pentanoyl-VLSLD[dV]PIKLK([AEEA-AEEA-γGlu-C18 diacid])KILLEQEKQK[Aib]QREQAETN[Aib]QILAQV-NH2)
EC50 [1]: 1.73 nM
Emax (% I) [2]: 8 % I
EC50 [2]: > 250 nM

Structure (SMILES): CCCCC(=O)N[C@H](C(=O)N[C@@H](CC(C)C)C(=O)N[C@@H](CO)C(=O)N[C@@H](CC(C)C)C(=O)N[C@@H](CC(=O)O)C(=O)N[C@@H](C(=O)N1CCC[C@H]1C(=O)N[C@H](C(=O)N[C@@H](CCCCN)C(=O)N[C@@H](CC(C)C)C(=O)N[C@@H](CCCCNC(=O)COCCOCCNC(=O)COCCOCCNC(=O)CC[C@H](NC(=O)CCCCCCCCCCCCCCCCC(=O)O)C(=O)O)C(=O)N[C@@H](CCCCN)C(=O)N[C@H](C(=O)N[C@@H](CC(C)C)C(=O)N[C@@H](CC(C)C)C(=O)N[C@@H](CCC(=O)O)C(=O)N[C@@H](CCC(N)=O)C(=O)N[C@@H](CCC(=O)O)C(=O)N[C@@H](CCCCN)C(=O)N[C@@H](CCC(N)=O)C(=O)N[C@@H](CCCCN)C(=O)N[C@@H](CCCCN)C(=O)N[C@@H](CCC(N)=O)C(=O)N[C@@H](CCCNC(=N)N)C(=O)N[C@@H](CCC(=O)O)C(=O)N[C@@H](CCC(N)=O)C(=O)N[C@@H](C)C(=O)N[C@@H](CCC(=O)O)C(=O)N[C@H](C(=O)N[C@@H](CC(N)=O)C(=O)N[C@@H](C)C(=O)N[C@@H](CCC(N)=O)C(=O)N[C@H](C(=O)N[C@@H](CC(C)C)C(=O)N[C@@H](C)C(=O)N[C@@H](CCC(N)=O)C(=O)N[C@H](C(N)=O)C(C)C)[C@@H](C)CC)[C@@H](C)O)[C@@H](C)CC)[C@@H](C)CC)C(C)C)C(C)C [compound 122] (Pentanoyl-VLSLD[dV]PIKLK([AEEA-AEEA-γGlu-C18 diacid])KILLEQEKQKKQREQAETNAQILAQV-NH2)
EC50 [1]: 0.67 nM
Emax (% I) [2]: 5 % I
EC50 [2]: > 250 nM

Structure (SMILES): CCCCC(=O)N[C@H](C(=O)N[C@@H](CC(C)C)C(=O)N[C@@H](CO)C(=O)N[C@@H](CC(C)C)C(=O)N[C@@H](CC(=O)O)C(=O)N[C@@H](C(=O)N1CCC[C@H]1C(=O)N[C@H](C(=O)N[C@@H](CCCCN)C(=O)N[C@@H](CC(C)C)C(=O)N[C@@H](CCCCNC(=O)COCCOCCNC(=O)COCCOCCNC(=O)CC[C@H](NC(=O)CCCCCCCCCCCCCCCCC(=O)O)C(=O)O)C(=O)N[C@@H](CCCCN)C(=O)N[C@H](C(=O)N[C@@H](CC(C)C)C(=O)N[C@@H](CC(C)C)C(=O)N[C@@H](CCC(=O)O)C(=O)N[C@@H](CCC(N)=O)C(=O)N[C@@H](CCC(=O)O)C(=O)N[C@@H](CCCCN)C(=O)N[C@@H](CCC(N)=O)C(=O)N[C@@H](CCCCN)C(=O)N[C@@H](CCCCN)C(=O)N[C@@H](CCC(N)=O)C(=O)N[C@@H](CCCNC(=N)N)C(=O)N[C@@H](CCC(=O)O)C(=O)N[C@@H](CCC(N)=O)C(=O)N[C@@H](C)C(=O)N[C@@H](CCC(=O)O)C(=O)N[C@H](C(=O)N[C@@H](CC(N)=O)C(=O)NC(C)(C)C(=O)N[C@@H](CCC(N)=O)C(=O)N[C@H](C(=O)N[C@@H](CC(C)C)C(=O)N[C@@H](C)C(=O)N[C@@H](CCC(N)=O)C(=O)N[C@H](C(N)=O)C(C)C)[C@@H](C)CC)[C@@H](C)O)[C@@H](C)CC)[C@@H](C)CC)C(C)C)C(C)C [compound 120] (Pentanoyl-VLSLD[dV]PIKLK([AEEA-AEEA-γGlu-C18 diacid])KILLEQEKQKKQREQAETN[Aib]QILAQV-NH2)
EC50 [1]: 1.33 nM
Emax (% I) [2]: 3 % I
EC50 [2]: > 250 nM

Stronger by EC50 [1], values ahead:

EC50 [1]: 0.25 nM
Emax (% I) [2]: 38 % I
EC50 [2]: > 250 nM
Structure (SMILES): CC[C@H](C)[C@H](N)C(=O)N[C@H](C(=O)N[C@@H](CC(C)C)C(=O)N[C@@H](CO)C(=O)N[C@@H](CC(C)C)C(=O)N[C@@H](CC(=O)O)C(=O)N[C@@H](C(=O)N1CCC[C@H]1C(=O)N[C@H](C(=O)N[C@@H](CCCCN)C(=O)N[C@@H](CC(C)C)C(=O)N[C@@H](CCCCNC(=O)COCCOCCNC(=O)COCCOCCNC(=O)CC[C@H](NC(=O)CCCCCCCCCCCCCCCCC(=O)O)C(=O)O)C(=O)N[C@@H](CCC(N)=O)C(=O)N[C@H](C(=O)N[C@@H](CC(C)C)C(=O)N[C@@H](CC(C)C)C(=O)N[C@@H](CCCCN)C(=O)N[C@@H](CCC(N)=O)C(=O)N[C@@H](CCC(=O)O)C(=O)N[C@@H](CCCNC(=N)N)C(=O)N[C@@H](CCC(N)=O)C(=O)N[C@@H](CCCCN)C(=O)N[C@@H](CCCCN)C(=O)N[C@@H](CCC(N)=O)C(=O)N[C@@H](CCCNC(=N)N)C(=O)N[C@@H](CCC(=O)O)C(=O)N[C@@H](CCC(N)=O)C(=O)N[C@@H](C)C(=O)N[C@@H](CCC(=O)O)C(=O)N[C@@H](CCCCN)C(=O)N[C@@H](CC(N)=O)C(=O)N[C@@H](CCCCN)C(=O)N[C@@H](CCC(N)=O)C(=O)N[C@H](C(=O)N[C@@H](CC(C)C)C(=O)N[C@@H](CCC(=O)O)C(=O)N[C@@H](CCC(N)=O)C(=O)N[C@H](C(N)=O)C(C)C)[C@@H](C)CC)[C@@H](C)CC)[C@@H](C)CC)C(C)C)C(C)C [compound 150] (H-IVLSLD[dV]PIKLK([AEEA-AEEA-γGlu-C18 diacid])QILLKQERQKKQREQAEKNKQILEQV-NH2)

EC50 [1]: 0.17 nM
Emax (% I) [2]: 10 % I
EC50 [2]: > 250 nM
Structure (SMILES): CC[C@H](C)[C@H](NC(C)=O)C(=O)N[C@H](C(=O)N[C@@H](CC(C)C)C(=O)N[C@@H](CO)C(=O)N[C@@H](CC(C)C)C(=O)N[C@@H](CC(=O)O)C(=O)N[C@@H](C(=O)N1CCC[C@H]1C(=O)N[C@H](C(=O)N[C@@H](CCCCN)C(=O)N[C@@H](CC(C)C)C(=O)N[C@@H](CCCCNC(=O)CC[C@H](NC(=O)CCCCCCCCCCCCCCCCC(=O)O)C(=O)O)C(=O)N[C@@H](CCCCN)C(=O)N[C@H](C(=O)N[C@@H](CC(C)C)C(=O)N[C@@H](CC(C)C)C(=O)N[C@@H](CCC(=O)O)C(=O)N[C@@H](CCC(N)=O)C(=O)N[C@@H](CCC(=O)O)C(=O)N[C@@H](CCCCN)C(=O)N[C@@H](CCC(N)=O)C(=O)N[C@@H](CCCCN)C(=O)N[C@@H](CCCCN)C(=O)N[C@@H](CCC(N)=O)C(=O)N[C@@H](CCCNC(=N)N)C(=O)N[C@@H](CCC(=O)O)C(=O)N[C@@H](CCC(N)=O)C(=O)N[C@@H](C)C(=O)N[C@@H](CCC(=O)O)C(=O)N[C@H](C(=O)N[C@@H](CC(N)=O)C(=O)N[C@@H](CN)C(=O)N[C@@H](CCC(N)=O)C(=O)N[C@H](C(=O)N[C@@H](CC(C)C)C(=O)N[C@@H](C)C(=O)N[C@@H](CCC(N)=O)C(=O)N[C@H](C(N)=O)C(C)C)[C@@H](C)CC)[C@@H](C)O)[C@@H](C)CC)[C@@H](C)CC)C(C)C)C(C)C [compound 128] (Ac-IVLSLD[dV]PIKLK([γGlu-C18 diacid])KILLEQEKQKKQREQAETN[Dap]QILAQV-NH2)
